# Several values for one entry are separate records, joined by “and”; a condition that tells them apart may be missing. Equal values may be shown once. Inconclusive results and toxic doses are left out.
# System: L1210 leukemia ip in BDF1 mice, survival T/C
# Experiment: NCI In Vivo Anticancer Drug Screen. Data for tumor model L1210 Leukemia (intraperitoneal) in B6D2F1 (BDF1) mice
# Settings: endpoint: mean survival time, higher = longer survival
# Method in brief: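 Read-out is survival time, reported as the treated-group measurement over the vehicle-control measurement.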
# [1] = dose: 100.0 mg/kg/injection, schedule: Q01DX009 (ip), vehicle: Klucel (hydroxypropylcellulose) (HPC)
# [2] = dose: 200.0 mg/kg/injection, schedule: Q01DX009 (ip), vehicle: Klucel (hydroxypropylcellulose) (HPC)
# [3] = dose: 400.0 mg/kg/injection, schedule: Q01DX009 (ip), vehicle: Klucel (hydroxypropylcellulose) (HPC)
# [4] = dose: 100.0 mg/kg/injection, schedule: Q01DX001 (ip), vehicle: saline with Tween-80
# [5] = dose: 200.0 mg/kg/injection, schedule: Q01DX001 (ip), vehicle: saline with Tween-80
# [6] = dose: 400.0 mg/kg/injection, schedule: Q01DX001 (ip), vehicle: saline with Tween-80
# [7] = dose: 100.0 mg/kg/injection, schedule: Q04DX003 (ip), vehicle: saline with Tween-80
# [8] = dose: 200.0 mg/kg/injection, schedule: Q04DX003 (ip), vehicle: saline with Tween-80
# [9] = dose: 400.0 mg/kg/injection, schedule: Q04DX003 (ip), vehicle: saline with Tween-80
compound,measurement,setting,value
CC([NH-])C(C)[NH-].[Cl][Pt+2][Cl] (stereo unspecified),T/C,"dose: 3.1 mg/kg/injection, schedule: Q04DX002 (ip), vehicle: Klucel (hydroxypropylcellulose) (HPC)",124 % of control
same,T/C,"dose: 6.25 mg/kg/injection, schedule: Q04DX002 (ip), vehicle: Klucel (hydroxypropylcellulose) (HPC)",153 % of control
same,T/C,"dose: 25.0 mg/kg/injection, schedule: Q04DX002 (ip), vehicle: Klucel (hydroxypropylcellulose) (HPC)",92 % of control
CCCCSCCOC(=O)Nc1ccc(Cl)cc1,T/C,[1],103 % of control
same,T/C,[2],108 % of control
same,T/C,[3],92 % of control
[O]=[Cr](=[O])([OH])[O][Cr](=[O])(=[O])[OH],T/C,"dose: 6.25 mg/kg/injection, schedule: Q01DX009 (ip), vehicle: saline",104 % of control
same,T/C,"dose: 12.5 mg/kg/injection, schedule: Q01DX009 (ip), vehicle: saline",97 % of control
same,T/C,"dose: 25.0 mg/kg/injection, schedule: Q04DX003 (ip), vehicle: saline",108 % of control
O=C1c2ccccc2C(=O)c2cc(-c3ccccc3)ccc21,T/C,[4],90 % of control
same,T/C,[5],93 % of control
same,T/C,[6],87 % of control
CC(=O)/C(C)=C\c1ccc(O)cc1,T/C,[7],91 % of control
same,T/C,[8],98 % of control
same,T/C,[9],102 % of control
COc1ccc(OC)c(N=C2C(=O)Nc3ccc(Br)cc32)c1,T/C,[4],92 % of control
same,T/C,"dose: 100.0 mg/kg/injection, schedule: Q01DX009 (ip), vehicle: saline with Tween-80",100 % of control
same,T/C,"dose: 100.0 mg/kg/injection, schedule: Q04DX002 (ip), vehicle: saline with Tween-80",108 % of control and 113 % of control
same,T/C,[7],101 % of control
same,T/C,[5],88 % of control
same,T/C,"dose: 200.0 mg/kg/injection, schedule: Q01DX009 (ip), vehicle: saline with Tween-80",94 % of control and 100 % of control
same,T/C,"dose: 200.0 mg/kg/injection, schedule: Q04DX002 (ip), vehicle: saline with Tween-80",95 % of control and 97 % of control
same,T/C,[8],93 % of control
same,T/C,[6],90 % of control
same,T/C,"dose: 400.0 mg/kg/injection, schedule: Q01DX009 (ip), vehicle: saline with Tween-80",101 % of control and 92 % of control
same,T/C,"dose: 400.0 mg/kg/injection, schedule: Q04DX002 (ip), vehicle: saline with Tween-80",88 % of control and 89 % of control
same,T/C,[9],88 % of control
COc1ccc(NC(=O)Nc2ccc(CCO)cc2)c(OC)c1,T/C,"dose: 100.0 mg/kg/injection, schedule: Q04DX002 (ip), vehicle: Klucel (hydroxypropylcellulose) (HPC)",97 % of control
same,T/C,"dose: 200.0 mg/kg/injection, schedule: Q04DX002 (ip), vehicle: Klucel (hydroxypropylcellulose) (HPC)",93 % of control
same,T/C,"dose: 400.0 mg/kg/injection, schedule: Q04DX002 (ip), vehicle: Klucel (hydroxypropylcellulose) (HPC)",93 % of control
CC(=O)Nc1ccc(OC(=O)Nc2cccc(Cl)c2Cl)cc1,T/C,[1],102 % of control
same,T/C,[2],101 % of control
same,T/C,[3],97 % of control
O/N=C1/CC2CCC(C2)C1(O)c1ccccc1 (stereo unspecified),T/C,"dose: 100.0 mg/kg/injection, schedule: Q01DX001 (ip), vehicle: saline",103 % of control
same,T/C,"dose: 200.0 mg/kg/injection, schedule: Q01DX001 (ip), vehicle: saline",113 % of control
same,T/C,"dose: 400.0 mg/kg/injection, schedule: Q01DX001 (ip), vehicle: saline",103 % of control
N#CCCCOc1ccc(Cl)cc1,T/C,"dose: 25.0 mg/kg/injection, schedule: Q04DX003 (ip), vehicle: Klucel (hydroxypropylcellulose) (HPC)",104 % of control
same,T/C,"dose: 50.0 mg/kg/injection, schedule: Q04DX003 (ip), vehicle: Klucel (hydroxypropylcellulose) (HPC)",104 % of control
same,T/C,"dose: 100.0 mg/kg/injection, schedule: Q04DX003 (ip), vehicle: Klucel (hydroxypropylcellulose) (HPC)",98 % of control
CC(=O)OCc1ccc(-n2c(C(F)(F)F)nc3nc(Cl)c(Cl)nc32)o1,T/C,"dose: 50.0 mg/kg/injection, schedule: Q01DX009 (ip), vehicle: saline",97 % of control
same,T/C,"dose: 100.0 mg/kg/injection, schedule: Q01DX009 (ip), vehicle: saline",102 % of control
same,T/C,"dose: 100.0 mg/kg/injection, schedule: Q04DX003 (ip), vehicle: saline",105 % of control
same,T/C,"dose: 200.0 mg/kg/injection, schedule: Q01DX009 (ip), vehicle: saline",96 % of control
same,T/C,"dose: 200.0 mg/kg/injection, schedule: Q04DX003 (ip), vehicle: saline",100 % of control
same,T/C,"dose: 400.0 mg/kg/injection, schedule: Q01DX009 (ip), vehicle: saline",97 % of control
same,T/C,"dose: 400.0 mg/kg/injection, schedule: Q04DX003 (ip), vehicle: saline",88 % of control
